How the values were obtained:
IL-6 = test: ELISA of IL-6 release in LPS-stimulated RAW264.7 cells; type: cell-based, mouse; settings: Mus musculus, RAW264.7, ELISA, read-out: Inhibition rate IL-6; for inhibition at 5 µM: RAW264.7, BAPs (5 μM) + LPS (1 μg/mL)
Description: (§1) We tested by inhibiting the secretion of TNF-α and IL-6 to better evaluated the anti-inflammatory effects of BAPs. […] Under the stimulation of LPS (1.0 μg/mL) with RAW264.7 cells, the release of TNF-α and IL-6 was detected. Besides, after treated with BAPs (5.0 μM) and LPS (1.0 μg/mL), the release of TNF-α and IL-6 was measured with an ELISA kit (eBioScience, San Diego, California), respectively. In general terms, pyrrolidine dithiocarbamate (PDTC, 30 μM) or BAP (5.0 μM) was used to pretreat cells for 2 h, respectively. Then, LPS (1.0 μg/mL) was added and cells were incubated for another 22 h. Finally, the culture media were centrifuged at 1000 rpm for 10 min, and the expression levels of TNF-α and IL-6 were determined by ELISA.

A549 = test: Modified MTT cytotoxicity assay, A549; settings: for IC50: Homo sapiens, A549, read-out: Cytotoxicity IC50 A549, MTT, non-small cell lung cancer cell line; for SI (selectivity index) A549: quotient of IC50 for normal (HHL-5) and malignant (A549) cells
Description: (§3) To further verify the anti-tumour activity, one human non-small cell lung cancer cell line (A549), one human ovarian cancer cell line (A2780), and one human normal heptical cell line (HHL-5) were screened by BAPs (4–30) using a modified MTT assay (Supporting Information). DOX and curcumin were selected as positive controls.
(§4) The optical density (OD) value of each well was measured on a
(§5) multi-well plate reader (TECAN, Mӓnnedorf, Switzerland ) at 570 nm.
(§6) Every IC 50 value was the average of three replicates.
(§7) Doxorubicin (DOX) and Curcumin were used as positive controls.

TNF-α = test: ELISA of TNF-α release in LPS-stimulated RAW264.7 cells; type: cell-based, mouse; settings: Mus musculus, RAW264.7, ELISA, read-out: Inhibition rate TNF-α; for inhibition at 5 µM: RAW264.7, BAPs (5 μM) + LPS (1 μg/mL)
Description: as §1

[1] = Modified MTT cytotoxicity assay, normal heptical cell line LO2; type: cell-based, human; settings: human, LO2 cells (normal hepatic cell line), 24 h incubation
Description: (§2) The HepG2, SMMC-7721, and LO2 cell lines were maintained at 37 °C, 5% humidified CO2, and 95% atmosphere. Dulbecco's Modified Eagle (DMEM) medium containing 10% foetal bovine serum (FBS) was used for culturing the HepG2 cell line; meanwhile, Roswell Park Memorial Institute (RPMI) 1640 medium containing 10% FBS was used for culturing other cell lines (SMMC-7721, LO2). The HepG2, SMMC-7721 and LO2 cells were seeded in a 96-well plate in 200 μL of medium per well at a density of approximately 8 × 10^3 cells/well and cultured for 24 h, followed by incubation in an incubator of indicated compounds with successive concentrations (10, 5, 2.5, 1.25, 0.625, 0.3125 μg/mL) for 24 h. In the control group, cells were only cultured with culture media. After the media were removed, 20 μL of MTT (5 mg/mL) was added, then cells were incubated for 4 h at 37 °C. […] GraphPad Prism 5 software was used to calculate their IC50 values. Every IC50 value was the average of three replicates. Doxorubicin (DOX) and curcumin were used as positive controls.

SMMC-7721 = test: Modified MTT cytotoxicity assay, SMMC-7721; type: cell-based, Human; settings: for IC50: Homo sapiens, SMMC-7721, 24 h, MTT, 24 h incubation, three replicates; for SI (selectivity index) SMMC-7721: quotient of IC50 for normal (LO2) and malignant (SMMC-7721) cells
Description: as §2

RAW264.7 cell = test: MTT toxicity pre-experiment on RAW264.7 macrophagocyte; type: cell-based, mouse; settings: Mus musculus, RAW264.7, BAPs 5 μM, read-out: Survival rate RAW264.7 cell
Description: Lipopolysaccharide (LPS) is a key constituent of Gram-negative bacterial endotoxin, which is used to induce an inflammatory response in corresponding inflammatory cells. TNF-α and IL-6 are two kinds of representative pro-inflammatory factors, which produced by LPS-stimulated RAW264.7 macrophage. In our pre-experiments, the toxicity against RAW264.7 macrophagocyte for all title compounds was tested by the MTT assay, and the results were listed in Table 2. The survival rates were above 80% for all BAPs (4-30) at the concentration of 5.0 μM.

A2780 = test: Modified MTT cytotoxicity assay, A2780; settings: for IC50: Homo sapiens, A2780, read-out: Cytotoxicity IC50 A2780, MTT, ovarian cancer cell line; for SI (selectivity index) A2780: quotient of IC50 for normal (HHL-5) and malignant (A2780) cells
Description: as §3, §4, §5, §6, §7

[2] = Modified MTT cytotoxicity assay, normal heptical cell line HHL-5; settings: human, HHL-5 cells (normal hepatic cell line)
Description: as §3, §4, §5, §6, §7

HepG2 = test: Modified MTT cytotoxicity assay, HepG2; type: cell-based, Human; settings: for IC50: Homo sapiens, HepG2, 24 h, MTT, 24 h incubation, three replicates, read-out: Cytotoxicity IC50 HepG2; for SI (selectivity index) HepG2: quotient of IC50 for normal (LO2) and malignant (HepG2) cells
Description: as §2

[3] = RAW264.7, PDTC 30 μM + LPS (1 μg/mL)

Cc1ccc(S(=O)(=O)N2C/C(=C\c3ccccc3C(F)(F)F)C(=O)/C(=C/c3ccccc3C(F)(F)F)C2)cc1 [BAP 5]
inhibition at 5 µM (IL-6): 49.6 ± 1.1% | IC50 (A549): 14 ± 1.99 µM | inhibition at 5 µM (TNF-α): 46.2 ± 1% | IC50 at 24 h [1]: 36.2 ± 2.3 µM | IC50 (SMMC-7721): 19.7 ± 0.1 µM | viability at 5 µM (RAW264.7 cell): 93.3 ± 1.7% | IC50 (A2780): 4.85 ± 0.47 µM | IC50 [2]: 24.9 ± 0.1 µM | IC50 (HepG2): 17.5 ± 0.1 µM

O=C1/C(=C/c2ccccc2C(F)(F)F)CN(S(=O)(=O)c2ccc(F)cc2)C/C1=C\c1ccccc1C(F)(F)F [BAP 8]
inhibition at 5 µM (IL-6): 51.3 ± 3.3% | IC50 (A549): 13.5 ± 1.39 µM | inhibition at 5 µM (TNF-α): 46.8 ± 4.2% | IC50 at 24 h [1]: 13.8 ± 1.1 µM | IC50 (SMMC-7721): 8.3 ± 0.2 µM | viability at 5 µM (RAW264.7 cell): 82.1 ± 1.9% | IC50 (A2780): 1.44 ± 0.54 µM | IC50 [2]: 11.8 ± 0.2 µM | IC50 (HepG2): 4 ± 0.2 µM

O=C1/C(=C/c2ccccc2C(F)(F)F)CN(S(=O)(=O)c2ccc(Cl)cc2)C/C1=C\c1ccccc1C(F)(F)F [BAP 9]
inhibition at 5 µM (IL-6): 38.2 ± 2.5% | IC50 (A549): 1.86 ± 0.61 µM | inhibition at 5 µM (TNF-α): 47.1 ± 6.4% | IC50 at 24 h [1]: 30.9 ± 0.3 µM | IC50 (SMMC-7721): 10.4 ± 0.3 µM | viability at 5 µM (RAW264.7 cell): 92.8 ± 4.2% | IC50 (A2780): 0.62 ± 0.07 µM | IC50 [2]: 9.3 ± 0.1 µM | IC50 (HepG2): 11 ± 0.3 µM

N#Cc1ccc(S(=O)(=O)N2C/C(=C\c3ccccc3C(F)(F)F)C(=O)/C(=C/c3ccccc3C(F)(F)F)C2)cc1 [BAP 11]
inhibition at 5 µM (IL-6): 59.1 ± 5.2% | IC50 (A549): 64.2 ± 10.2 µM | SI (selectivity index) A549 (A549): 0.2 | inhibition at 5 µM (TNF-α): 58.9 ± 3.2% | IC50 at 24 h [1]: 13 ± 0.1 µM | IC50 (SMMC-7721): 12 ± 0.2 µM | SI (selectivity index) SMMC-7721 (SMMC-7721): 1.1 | viability at 5 µM (RAW264.7 cell): 84.2 ± 2% | IC50 (A2780): 32.3 ± 7.69 µM | SI (selectivity index) A2780 (A2780): 0.5 | IC50 [2]: 15.5 ± 0.3 µM | IC50 (HepG2): 9 ± 0.2 µM | SI (selectivity index) HepG2 (HepG2): 1.4

Cc1ccc(S(=O)(=O)N2C/C(=C\c3cccc(C(F)(F)F)c3)C(=O)/C(=C/c3cccc(C(F)(F)F)c3)C2)cc1 [BAP 14]
inhibition at 5 µM (IL-6): 66.3 ± 2% | IC50 (A549): 0.23 ± 0.04 µM | inhibition at 5 µM (TNF-α): 60.2 ± 1.2% | IC50 at 24 h [1]: 15.9 ± 0.1 µM | IC50 (SMMC-7721): 5.6 ± 0.1 µM | viability at 5 µM (RAW264.7 cell): 89.2 ± 1.8% | IC50 (A2780): 0.14 ± 0.03 µM | IC50 [2]: 9.4 ± 0.2 µM | IC50 (HepG2): 11.1 ± 0.2 µM

O=C1/C(=C/c2cccc(C(F)(F)F)c2)CN(S(=O)(=O)c2ccc(F)cc2)C/C1=C\c1cccc(C(F)(F)F)c1 [BAP 17]
inhibition at 5 µM (IL-6): 67.6 ± 2.2% | IC50 (A549): 0.28 ± 0.01 µM | inhibition at 5 µM (TNF-α): 65.6 ± 1.2% | IC50 at 24 h [1]: 19.5 ± 0.1 µM | IC50 (SMMC-7721): 4.8 ± 0.3 µM | viability at 5 µM (RAW264.7 cell): 85.1 ± 2% | IC50 (A2780): 0.14 ± 0.01 µM | IC50 [2]: 3.5 ± 0.5 µM | IC50 (HepG2): 3.4 ± 0.2 µM

O=C1/C(=C/c2cccc(C(F)(F)F)c2)CN(S(=O)(=O)c2ccc(Cl)cc2)C/C1=C\c1cccc(C(F)(F)F)c1 [BAP 18]
inhibition at 5 µM (IL-6): 46.2 ± 2.1% | IC50 (A549): 0.15 ± 0.02 µM | inhibition at 5 µM (TNF-α): 50.6 ± 3.2% | IC50 at 24 h [1]: 14.1 ± 0.1 µM | IC50 (SMMC-7721): 13.9 ± 0.1 µM | viability at 5 µM (RAW264.7 cell): 85.7 ± 4.2% | IC50 (A2780): 0.19 ± 0.02 µM | IC50 [2]: 2.2 ± 0.1 µM | IC50 (HepG2): 5.2 ± 0.1 µM

N#Cc1ccc(S(=O)(=O)N2C/C(=C\c3cccc(C(F)(F)F)c3)C(=O)/C(=C/c3cccc(C(F)(F)F)c3)C2)cc1 [BAP 20]
inhibition at 5 µM (IL-6): 77.7 ± 1.5% | IC50 (A549): 0.17 ± 0.002 µM | SI (selectivity index) A549 (A549): 14.1 | inhibition at 5 µM (TNF-α): 75.2 ± 2.7% | IC50 at 24 h [1]: 17.4 ± 0.1 µM | IC50 (SMMC-7721): 4.3 ± 0.2 µM | SI (selectivity index) SMMC-7721 (SMMC-7721): 4.0 | viability at 5 µM (RAW264.7 cell): 83.7 ± 1.3% | IC50 (A2780): 0.15 ± 0.02 µM | SI (selectivity index) A2780 (A2780): 16.0 | IC50 [2]: 2.4 ± 0.4 µM | IC50 (HepG2): 0.9 ± 0.1 µM | SI (selectivity index) HepG2 (HepG2): 19.3

O=C1/C(=C/c2ccc(C(F)(F)F)cc2)CN(S(=O)(=O)c2ccccc2)C/C1=C\c1ccc(C(F)(F)F)cc1 [BAP 22]
inhibition at 5 µM (IL-6): 68.3 ± 1.3% | IC50 (A549): 0.18 ± 0.02 µM | inhibition at 5 µM (TNF-α): 65.2 ± 1.3% | IC50 at 24 h [1]: 18.2 ± 0.2 µM | IC50 (SMMC-7721): ~8.5 µM | viability at 5 µM (RAW264.7 cell): 89.4 ± 7.8% | IC50 (A2780): 0.17 ± 0.06 µM | IC50 [2]: 7.9 ± 0.1 µM | IC50 (HepG2): ~1.8 µM

O=C1/C(=C/c2ccc(C(F)(F)F)cc2)CN(S(=O)(=O)c2ccc(Br)cc2)C/C1=C\c1ccc(C(F)(F)F)cc1 [BAP 28]
inhibition at 5 µM (IL-6): > 70% | IC50 (A549): 0.2 ± 0.02 µM | SI (selectivity index) A549 (A549): 103.5 | inhibition at 5 µM (TNF-α): > 70% | IC50 at 24 h [1]: 14.2 ± 0.3 µM | IC50 (SMMC-7721): 1.9 ± 0.2 µM | SI (selectivity index) SMMC-7721 (SMMC-7721): 7.5 | viability at 5 µM (RAW264.7 cell): 84 ± 3.6% | IC50 (A2780): 0.18 ± 0.04 µM | SI (selectivity index) A2780 (A2780): 115.0 | IC50 [2]: 20.7 ± 0.5 µM | IC50 (HepG2): 1.7 ± 0.2 µM | SI (selectivity index) HepG2 (HepG2): 8.4

COc1cc(/C=C/C(=O)CC(=O)/C=C/c2ccc(O)c(OC)c2)ccc1O [Curcumin, reference compound]
IC50 (A549): 32 ± 3.55 µM | SI (selectivity index) A549 (A549): 0.8 | IC50 at 24 h [1]: 29.1 ± 2.1 µM | IC50 (SMMC-7721): ~19.5 µM | SI (selectivity index) SMMC-7721 (SMMC-7721): 1.5 | IC50 (A2780): 44 ± 9.82 µM | SI (selectivity index) A2780 (A2780): 0.5 | IC50 [2]: 24.2 ± 0.5 µM | IC50 (HepG2): ~15.3 µM | SI (selectivity index) HepG2 (HepG2): 1.9

S=C(S)N1CCCC1 [PDTC, pyrrolidine dithiocarbamate, reference compound]
inhibition at 30 µM (IL-6; [3]): ~59.1% | inhibition at 30 µM (TNF-α; [3]): ~68.2%

Source: article PMC8297402, “Trifluoromethyl-substituted 3,5-bis(arylidene)-4-piperidones as potential anti-hepatoma and anti-inflammation agents by inhibiting NF-кB activation” (Journal of Enzyme Inhibition and Medicinal Chemistry, 2021)
